Test results reported in patent US20090018136A1, “METHODS AND COMPOSITIONS FOR THE TREATMENT OF VASCULAR DISEASE” (priority 2005, published 2009).
Where a name gives a salt, the structure may show the parent alone.

Legend:
[1] = for water adsorbed (hygroscopicity): content to which the form adsorbs water; for water adsorbed (hygroscopicity) / hygroscopicity: dihydrochloride
[2] = system: sickle cell transgenic (PS) mice; conditions: administration to sickle cell transgenic (PS) mice; cited from earlier work
[3] = system: beagles; conditions: dog, in vivo
Protocol: This study evaluated the cardiovascular effects of high doses of 6R-BH4 in combination with the PDE5 inhibitor sildenafil citrate in vivo. Eight male research nonnaïve and naïve purebred beagles were dosed in a double Latin square crossover design as described in the following table. All animals were dosed by oral gavage. Test articles were administered at a dose volume of 5 mL/kg (for a total volume of 10 mL/kg for the combination dose); control animals were dosed at a dose volume of 10 mL/kg. 6R-BH4 (sapropterin dihydrochloride) provided as 300 mg tablets (100 mg active 6R-BH4/tablet) stored at room temperature with desiccant.
At initiation of treatment, the animals were approximately 7 to 10 months old, and their body weights prior to dosing ranged from 7.8 to 12.0 kg.
At least 2 weeks prior to initiation of treatment, animals were fasted overnight, anesthetized, and an electrocardiogram (ECG) and blood pressure transmitter were implanted into the abdomen and sutured to the abdominal wall. The blood pressure catheter was placed in an artery and advanced to the abdominal aorta. Animals were checked twice daily (a.m. and p.m.) for mortality, abnormalities, and signs of pain and distress. Additional findings were recorded as observed.
Detailed observations were taken three times during the predose phase (including the day before dosing) and on Days 3 and 10 of the dosing phase. For each dosing day, ECG and pressure measurements were recorded for at least 90 minutes prior to dosing, continuously for at least 8 hours after dosing, and then for one period of at least 15 minutes in duration each hour through at least 24 hours postdose. Blood pressure measurements included systolic, diastolic, and mean arterial pressures and pulse pressure (systolic-diastolic). […]
Quantitative evaluation of ECG measurements, including RR interval, QT, and rate-corrected QT (QTc, using Fridericia's method), were done.
Positive inotropic effects (+dP/dtmax) and heart rate were calculated from a left ventricular pressure signal predose and approximately 2, 4, 8, 12, and 24 hours postdose. […]

[4] = system: hypertensive patients; assay: Study 2: dose-response of oral BH4 on blood pressure and heart rate, after 2-week vitamin C run-in; type: in vivo, human
Protocol: Prior studies have used parenteral infusion of BH4 or a single oral dose; thus it was not known whether long-term oral BH4 over a period of days to weeks would result in a sustained improvement in endothelial dysfunction. […] Two studies were conducted to investigate the duration of action of oral BH4 and the response of hypertensive subjects to different doses of BH4. […] Patients were continued on their current anti-hypertensive therapy which remained unchanged. […] BH4 powder was obtained from Schircks Laboratories (Jona, Switzerland). BH4 when administered with vitamin C was compounded with vitamin C at a ratio of 1 mg of vitamin C/1 mg BH4 into appropriate sized capsules. Subjects were advised to keep the pills in a freezer or refrigerator. For both study 1 and study 2, the primary end point after statistical analysis was a reduction of systolic, mean and diastolic BP during BH4 therapy. Secondary end points included improvement of endothelial function as FMD. Linear mixed effects models for repeated measures data were used to analyze change in BP from baseline to end of treatment period and differences in change between 100 mg and 200 mg dose groups. A quadratic term for week was included in the model to account for non-linear trends over the treatment period. Dose, week and week squared were the main effect terms in the model; dose by week and dose by week squared were the interaction terms in the model. Significant interaction terms indicate a difference in the pattern of change between the two dose groups. FMD data was analyzed using the two-tailed student t-test. […] Of the 20 subjects who qualified for participation, 4 were excluded during the run-in phase because of inability to return for follow-up appointments. There were 6 male subjects, mean age 59.5±8.3 years. Eight subjects received 200 mg b.i.d (twice daily) of oral BH4 and 8 received 100 mg b.i.d. of oral BH4. […] Because BH4 was compounded with vitamin C in a 1:1 ratio, all subjects received vitamin C, at their assigned BH4 dose, twice a day during the first 2-week period. After this 2-week run-in period, subjects received BH4 only at their assigned dosage for the next 4 weeks. Weekly heart rate and BP measurements were made during the run-in period and treatment period. Mean blood pressure was calculated as: (SBP+2×DBP)/3. BH4 was then stopped and follow-up was performed at 1 and 4 weeks after discontinuation where BP and heart rate measurements were made. Routine chemistries and LFT's were drawn prior to initiation of medication, at the end of BH4 therapy and one month after discontinuation of BH4.

## C[C@H](O)[C@H](O)[C@H]1CNc2nc(N)[nH]c(=O)c2N1.Cl.Cl [form A, (6R)-L-erythro-tetrahydrobiopterin dihydrochloride]
[1]
  water adsorbed (hygroscopicity): about 3 percent by weight
  hygroscopicity: slightly hygroscopic
[1]; tetrahydrofuran five days or tertiary-butyl methyl ether 18 hours, under nitrogen at room temperature, then filtration and air-drying
  phase equilibration test of suspensions: unchanged

## C[C@H](O)[C@H](O)[C@H]1CNc2nc(N)[nH]c(=O)c2N1.Cl.Cl [form B, (6R)-L-erythro-tetrahydrobiopterin dihydrochloride]
[1]
  hygroscopicity: slightly hygroscopic

## C[C@H](O)[C@H](O)[C@H]1CNc2nc(N)[nH]c(=O)c2N1.Cl.Cl [form C, (6R)-L-erythro-tetrahydrobiopterin dihydrochloride]
[1]
  hygroscopicity: slightly hygroscopic

## C[C@H](O)[C@H](O)[C@H]1CNc2nc(N)[nH]c(=O)c2N1.Cl.Cl [form D, (6R)-L-erythro-tetrahydrobiopterin dihydrochloride]
[1]
  hygroscopicity: slightly hygroscopic

## C[C@H](O)[C@H](O)[C@H]1CNc2nc(N)[nH]c(=O)c2N1.Cl.Cl [form E, (6R)-L-erythro-tetrahydrobiopterin dihydrochloride]
[1]
  hygroscopicity: non-hygroscopic

## C[C@H](O)[C@H](O)[C@H]1CNc2nc(N)[nH]c(=O)c2N1.Cl.Cl [form F, (6R)-L-erythro-tetrahydrobiopterin dihydrochloride]
[1]
  water adsorbed (hygroscopicity): about 3 percent by weight
  hygroscopicity: slightly hygroscopic

## C[C@H](O)[C@H](O)[C@H]1CNc2nc(N)[nH]c(=O)c2N1.Cl.Cl [form J, (6R)-L-erythro-tetrahydrobiopterin dihydrochloride]
[1]
  hygroscopicity: slightly hygroscopic

## C[C@H](O)[C@H](O)[C@H]1CNc2nc(N)[nH]c(=O)c2N1.Cl.Cl [form K, (6R)-L-erythro-tetrahydrobiopterin dihydrochloride]
[1]
  water adsorbed (hygroscopicity): about 2.0 percent by weight
  hygroscopicity: slightly hygroscopic

## C[C@H](O)C(=O)C1=Nc2c(nc(N)[nH]c2=O)NC1 [sepiapterin]
[2]
  blood cell adhesion: attenuation

## CCCc1nn(C)c2c(=O)[nH]c(-c3cc(S(=O)(=O)N4CCN(C)CC4)ccc3OCC)nc12 [sildenafil citrate]
[3]
  Arterial pulse pressure: significantly increased
  Heart rate: significantly increased

## O=C1O[C@H]([C@@H](O)CO)C(O)=C1O [vitamin C, ascorbic acid, reference compound]
[4]; Study 2, 16 subjects, after 2 weeks of vitamin C run-in, 84±13 before, p=ns
  diastolic arterial BP: 86±11 mmHg
[4]; Study 2, 16 subjects, after 2 weeks of vitamin C run-in, 106±10 before, p=ns
  mean arterial BP: 106±12 mmHg
[4]; Study 2, 16 subjects, after 2 weeks of vitamin C run-in, 152±11 before, p=ns
  systolic arterial BP: 148±19 mmHg
[4]; Study 2, vitamin C twice a day for 2 weeks, either group
  change in heart rate or BP during the run-in phase: no significant change
